These results are taken from patent publication US20080085893A1, “MATRIX METALLOPROTEASE INHIBITORS” (priority 2006, published 2008).

pIC50: −log10 of the molar value. Several values for one entry are separate records, joined by “and”; a condition that tells them apart may be missing. Identical values can stand only once.

What all share (format): biochemical
For test [1], the target named is T1, human MMP-1 (amino acids 100-262) (Homo sapiens, UniProt P03956).
T1 construct: human MMP-1 (amino acids 100-262); made in house
T1 sequence (P03956 100-262): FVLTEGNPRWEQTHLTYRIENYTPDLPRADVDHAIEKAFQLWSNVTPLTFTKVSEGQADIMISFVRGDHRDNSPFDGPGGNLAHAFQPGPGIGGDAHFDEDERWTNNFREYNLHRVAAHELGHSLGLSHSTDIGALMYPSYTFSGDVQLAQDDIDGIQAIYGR
In words: MMP dose response assay for determining IC50, MMP-1. Particulars: recombinant catalytic domain, fluorescent-quench substrate 100 nM. How it is done:
MMP Dose Response Assay for Determining IC50
The following method was used for determining IC50 values of different inhibitor compounds against multiple MMP enzymes. Frozen stocks of recombinantly produced MMPs were prepared in assay buffer (50 mM HEPES pH 7.4, 10 mM CaCl2, 0.05% Brij-35). […] Enzyme concentrations in the assay were determined empirically and set such that proteolytic activity was maintained in a linear range over the time-course of the experiment. […] Each concentration for each test compound was tested in triplicate. MMP enzymes were equilibrated with compounds for 1 hour at room temperature, then a fluorescent-quench substrate (Acetyl-Cys(Eu)-Pro-Leu-Gly-Leu-Lys-(QSY7)-Ala-Arg-amide) was added to a final concentration of 100 nM. […] Data was analyzed by first calculating average background value from wells that contained only substrate, and this value was subtracted from the entire plate. The 100%, or maximum value, was determined by averaging control wells that contained enzyme, substrate and DMSO. For each well, the percent of control was calculated by dividing the well value by the average DMSO value obtained above.

Test [2] deals with T2, human MMP-2 (amino acids 1-660) (Homo sapiens, UniProt P08253).
T2 construct: human MMP-2 (amino acids 1-660); made in house
T2 sequence (P08253 110-660): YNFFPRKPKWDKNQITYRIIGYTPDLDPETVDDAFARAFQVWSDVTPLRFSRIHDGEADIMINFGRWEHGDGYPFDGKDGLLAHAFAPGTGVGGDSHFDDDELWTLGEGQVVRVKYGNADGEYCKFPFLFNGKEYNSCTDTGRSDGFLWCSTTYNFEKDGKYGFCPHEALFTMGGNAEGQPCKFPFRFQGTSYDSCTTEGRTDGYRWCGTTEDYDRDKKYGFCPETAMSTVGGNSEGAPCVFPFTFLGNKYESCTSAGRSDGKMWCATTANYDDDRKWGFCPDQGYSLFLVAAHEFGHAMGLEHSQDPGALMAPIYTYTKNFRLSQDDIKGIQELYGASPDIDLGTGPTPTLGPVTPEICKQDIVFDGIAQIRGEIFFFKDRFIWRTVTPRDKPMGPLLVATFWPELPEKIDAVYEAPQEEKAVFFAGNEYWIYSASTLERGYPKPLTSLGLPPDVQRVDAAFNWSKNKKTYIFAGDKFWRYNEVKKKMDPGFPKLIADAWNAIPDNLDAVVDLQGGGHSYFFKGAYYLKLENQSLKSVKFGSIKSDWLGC
In words: MMP dose response assay for determining IC50, MMP-2. The following applies: recombinant enzyme, fluorescent-quench substrate 100 nM; read-out: MMP-2. A digest of the protocol:
(§1)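 Recombinant enzymes in 50 mM HEPES pH 7.4, 10 mM CaCl2, 0.05% Brij-35, at empirically set levels keeping activity linear, preincubated 1 h at room temperature with compound in triplicate. Fluorescence-quench peptide substrate (Eu/QSY7) added at 100 nM final. Background-subtracted signal expressed as percent of DMSO control for IC50.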

The target in test [3] is T3, human MMP-9 (amino acids 107-446) (Homo sapiens, UniProt P14780).
T3 construct: human MMP-9 (amino acids 107-446); made in house
T3 sequence (P14780 107-446): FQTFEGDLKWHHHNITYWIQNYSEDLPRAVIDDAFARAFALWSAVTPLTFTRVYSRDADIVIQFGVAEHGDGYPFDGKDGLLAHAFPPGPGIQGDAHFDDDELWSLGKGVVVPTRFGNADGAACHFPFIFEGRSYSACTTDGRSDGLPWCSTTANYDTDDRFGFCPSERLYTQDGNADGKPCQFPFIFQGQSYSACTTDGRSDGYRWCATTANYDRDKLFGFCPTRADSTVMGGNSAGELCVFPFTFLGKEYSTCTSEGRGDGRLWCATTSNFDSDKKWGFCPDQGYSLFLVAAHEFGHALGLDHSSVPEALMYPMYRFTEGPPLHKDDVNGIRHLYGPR
In words: MMP dose response assay for determining IC50, MMP-9. Particulars: recombinant enzyme, fluorescent-quench substrate 100 nM; read-out: MMP-9. The method, boiled down: as §1

As for `Cc1ccc(Oc2ccc(N(C[C@H](Nc3ccc(F)cc3)C(=O)NO)S(C)(=O)=O)cc2)cc1` [Example 38, N-Hydroxy (2S)-2-(4-fluorophenyl)amino-3-{N-[4-(4-methylphenoxy)phenyl],N-methanesulfonylamino}propionamide], the values for the pIC50 in test [1], in test [2] and in test [3] were below 5.00, 7.19 and 8.88, respectively.

Consider `Cc1ccc(Oc2ccc(N(C[C@H](Nc3cccc(F)c3)C(=O)NO)S(C)(=O)=O)cc2)cc1` [Example 39, N-Hydroxy (2S)-2-(3-fluorophenyl)amino-3-{N-[4-(4-methylphenoxy)phenyl],N-methanesulfonylamino}propionamide], for which the pIC50 in test [1] is below 5.00; in test [2] it was 7.46 and 7.30 and 7.14 and 7.28; in test [3], 9.34 and 8.93 and 8.77 and 9.60.

As to `Cc1ccc(Oc2ccc(N(C[C@H](Nc3ccc4[nH]ccc4c3)C(=O)NO)S(C)(=O)=O)cc2)cc1` [Example 40, N-Hydroxy (2S)-2-(indol-5-yl)amino-3-{N-[4-(4-methylphenoxy)phenyl],N-methanesulfonylamino}propionamide], the pIC50 in test [1] is 5.19 and 5.05; in test [2], 7.51 and 7.83; in test [3], 9.00 and 9.19.

Take `Cc1ccc(Oc2ccc(N(C[C@H](Nc3ccc(F)c(F)c3)C(=O)NO)S(C)(=O)=O)cc2)cc1` [Example 41, N-Hydroxy (2S)-2-(3,4-difluorophenyl)amino-3-{N-[4-(4-methylphenoxy)phenyl],N-methanesulfonylamino}propionamide]: the results for the pIC50 in test [1], in test [2] and in test [3] were below 5.00, 6.90 and 8.59, respectively.

With `Cc1ccc(Oc2ccc(N(C[C@H](Nc3ccc(F)c(Cl)c3)C(=O)NO)S(C)(=O)=O)cc2)cc1` [Example 42, N-Hydroxy (2S)-2-(3-chloro-4-fluorophenyl)amino-3-{N-[4-(4-methylphenoxy)phenyl],N-methanesulfonylamino}propionamide], the pIC50 in test [1] is below 5.00; in test [2], 6.37; in test [3] it was 7.70.

In the case of `Cc1ccc(Oc2ccc(N(C[C@H](Nc3ccc(Cl)cc3)C(=O)NO)S(C)(=O)=O)cc2)cc1` [Example 43, N-Hydroxy (2S)-2-(4-chlorophenyl)amino-3-{N-[4-(4-methylphenoxy)phenyl],N-methanesulfonylamino}propionamide], the pIC50 in test [1] was below 5.00; in test [2] it was 6.47; in test [3] it was 7.66.

Turning to `Cc1ccc(Oc2ccc(N(C[C@H](Nc3cccc(Cl)c3)C(=O)NO)S(C)(=O)=O)cc2)cc1` [Example 44, N-Hydroxy (2S)-2-(3-chlorophenyl)amino-3-{N-[4-(4-methylphenoxy)phenyl],N-methanesulfonylamino}propionamide], the pIC50 is below 5.00 in test [1], 6.48 in test [2] and 7.71 in test [3].

As for `Cc1ccc(Oc2ccc(N(C[C@H](Nc3cccc(C(F)(F)F)c3)C(=O)NO)S(C)(=O)=O)cc2)cc1` [Example 45, N-Hydroxy (2S)-3-{N-[4-(4-methylphenoxy)phenyl],N-methanesulfonylamino}-2-(3-trifluorormethylphenyl)aminopropionamide], the pIC50 in test [1] is 5.22; in test [2], 6.17; in test [3] it was 7.23.

Take `Cc1ccc(Oc2ccc(N(C[C@H](N[C@H](C)c3ccccc3)C(=O)NO)S(C)(=O)=O)cc2)cc1` [Example 46, N-Hydroxy (2S)-3-{N-[4-(4-methylphenoxy)phenyl],N-methanesulfonylamino}-2-[(1R)-1-phenyl-1-ethyl]aminopropionamide]: the pIC50 in test [1] was below 5.00; in test [2], 7.62; in test [3], 8.81.

As for `Cc1ccc(Oc2ccc(N(C[C@H](N[C@@H](C)c3ccccc3)C(=O)NO)S(C)(=O)=O)cc2)cc1` [Example 47, N-Hydroxy (2S)-3-{N-[4-(4-methylphenoxy)phenyl],N-methanesulfonylamino}-2-[(1S)-1-phenyl-1-ethyl]aminopropionamide], the pIC50 is 5.17 in test [1], 7.93 in test [2] and 9.27 in test [3].

For `Cc1ccc(Oc2ccc(N(C[C@H](Nc3ccc4ccccc4c3)C(=O)NO)S(C)(=O)=O)cc2)cc1` [Example 60, N-Hydroxy (2S)-3-{N-[4-(4-methylphenoxy)phenyl],N-methanesulfonylamino}-2-(naphthylen-2-yl)aminopropionamide], the pIC50 in test [1] was 5.22 and < 5.00; in test [2], 5.84 and 6.06; in test [3], 7.06 and 7.03.

Take `CS(=O)(=O)N(C[C@H](O)C(=O)NO)c1ccc(C#Cc2ccc(Cl)cc2)cc1` [Example 62, N-Hydroxy (2S)-2-hydroxy-3-{N-[4-(4-chlorophenylacetylene)phenyl],N-methanesulfonylamino}propionamide]: the pIC50 in test [1] is below 5.00; in test [2], 7.25; in test [3] it was 7.33.

`CS(=O)(=O)N(C[C@H](O)C(=O)NO)c1ccc(C#Cc2cccs2)cc1` [Example 64, N-Hydroxy (2S)-2-hydroxy-3-{N-[4-(4-thiophen-2-ylacetylene)phenyl],N-methanesulfonylamino}propionamide]: the figures for the pIC50 in test [1], in test [2] and in test [3] were below 5.00, 6.99 and 6.11, respectively.

`CS(=O)(=O)N(C[C@@H](C(=O)NO)N1CCN(C(=O)OCc2ccccc2)CC1)c1ccc(Oc2ccc(C(F)(F)F)cc2)cc1` [Example 67, N-Hydroxy (2S)-2-[(4-benzyloxycarbonyl)piperazin-1-yl]-3-{N-[4-(4-trifluoromethylphenoxy)phenyl],N-methanesulfonylamino}propionamide]: the pIC50 in test [1] is below 5.00; in test [2], 8.32 and 8.36; in test [3], 8.19 and 8.07.

For the molecule `CC(C)N(CCNC(=O)OCc1ccccc1)[C@@H](CN(c1ccc(Oc2ccc(C(F)(F)F)cc2)cc1)S(C)(=O)=O)C(=O)NO` [Example 68], the results for the pIC50 in test [1], in test [2] and in test [3] were below 5.00, 6.58 and 7.54, respectively.

Consider `CC(C)N(Cc1ccccc1)[C@@H](CN(c1ccc(Oc2ccc(C(F)(F)F)cc2)cc1)S(C)(=O)=O)C(=O)NO` [Example 69, N-Hydroxy (2S)-2-[N-benzyl-N-(2-propyl)amino]-3-{N-[4-(4-trifluoromethylphenoxy)phenyl],N-methanesulfonylamino}propionamide], for which the pIC50 in test [1] is below 5.00; in test [2], 6.55; in test [3] it was 7.17.

`CS(=O)(=O)N(C[C@@H](C(=O)NO)N1CCS(=O)(=O)CC1)c1ccc(Oc2ccc(C(F)(F)F)cc2)cc1` [Example 70, N-Hydroxy (2S)-2-[1,1-bis(oxo)thiomorpholin-4-yl]-3-{N-[4-(4-trifluoromethylphenoxy)phenyl],N-methanesulfonylamino}propionamide]: the pIC50 in test [1] was below 5.00; in test [2], 8.33 and 8.30 and 7.80; in test [3] it was 8.72 and 8.82 and 8.20.

For `CS(=O)(=O)N(C[C@@H](C(=O)NO)N1CCC(O)CC1)c1ccc(Oc2ccc(C(F)(F)F)cc2)cc1` [Example 71, N-Hydroxy (2S)-2-(4-hydroxypiperidin-1-yl)-3-{N-[4-(4-trifluoromethylphenoxy)phenyl],N-methanesulfonylamino}propionamide], the pIC50 in test [1] was 5.07 and < 5.00; in test [2], 8.80 and 8.31 and 7.97; in test [3], 9.18 and 8.84 and 8.45.

With `CS(=O)(=O)N(C[C@@H](C(=O)NO)N1Cc2ccccc2C1)c1ccc(Oc2ccc(C(F)(F)F)cc2)cc1` [Example 72, N-Hydroxy (2S)-2-(isoindolin-2-yl)-3-{N-[4-(4-trifluoromethylphenoxy)phenyl],N-methanesulfonylamino}propionamide], the pIC50 in test [1] is below 5.00; in test [2], 8.42 and 8.99; in test [3], 9.14 and 9.77.
